The structures appear in SMILES notation. Counter-ions that a name gives are not always drawn.

The target of the first test is T1, KMO mouse enzyme (Mus musculus, UniProt Q91WN4).
T1 construct: KMO enzyme prepared at Evotec from mouse liver (4-6 weeks old) via mitochondria isolation; from tissue; host or cells: mouse liver (4-6 weeks old), mitochondria isolation, prepared at Evotec
T1 sequence (Q91WN4 whole entry): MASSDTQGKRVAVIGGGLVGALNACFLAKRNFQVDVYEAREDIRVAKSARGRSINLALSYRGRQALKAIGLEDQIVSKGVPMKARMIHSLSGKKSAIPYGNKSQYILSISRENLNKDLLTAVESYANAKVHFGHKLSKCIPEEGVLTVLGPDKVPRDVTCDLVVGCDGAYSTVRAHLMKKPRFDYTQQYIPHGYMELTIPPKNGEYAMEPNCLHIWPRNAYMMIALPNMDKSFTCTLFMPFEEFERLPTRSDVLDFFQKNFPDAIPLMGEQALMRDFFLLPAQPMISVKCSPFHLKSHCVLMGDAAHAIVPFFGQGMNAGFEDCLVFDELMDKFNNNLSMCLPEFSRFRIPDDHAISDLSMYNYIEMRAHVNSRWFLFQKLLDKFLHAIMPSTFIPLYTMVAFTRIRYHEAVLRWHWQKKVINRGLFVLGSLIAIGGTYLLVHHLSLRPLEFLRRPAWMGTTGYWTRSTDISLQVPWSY
Briefly: KMO mouse enzyme assay: L-Kynurenine hydroxylation to 3-Hydroxy-Kynurenine monitored by LC/MS (MRM). In kind it is biochemical. The following applies: compound at 10 μM; KMO enzyme from mouse liver mitochondria. The protocol: A method of monitoring L-Kynurenine (KYN) hydroxylation to form 3-Hydroxy-Kynurenine (3OH-KYN) by LC/MS is described. Product is quantified by multiple reaction monitoring (MRM method).
• Compound: Stock concentrations: 10 mM in 100% DMSO • Enzyme: KMO enzyme prepared at Evotec from mouse liver (4-6 weeks old) via mitochondria isolation as described in the literature • Substrate: L-Kynurenine (Sigma: Cat# K3750, stock concentration: 10 mM in 100 mM potassium phosphate buffer, pH 7.4) Assay Conditions: […]
As to `Cl.O=C(O)c1cc(-c2cc(Cl)cc(Cl)c2)ccn1` [4-(3,5-Dichloro-phenyl)-pyridine-2-carboxylic acid hydrocloride salt], the “INH.Mouse @ 10 μM” value worked out at 76.6.
The same measure, in the same setting: in the case of `CN1CCN(c2ccc(NC(=O)c3cc(-c4cccc(Cl)c4)ncn3)cc2)CC1` [6-(3-Chloro-phenyl)-pyrimidine-4-carboxylicacid[4-(4-methyl-piperazin-1-yl)-phenyl]-amide] it was 87.7.

Staying with this test, now noted: compound at 10 μM; KMO enzyme from mouse liver mitochondria; read-out: INH.Mouse @ 10 μM.
Take `COC(=O)c1cc(-c2ccc(C(F)(F)F)c(Cl)c2)ncn1` [6-(3-Chloro-4-trifluoromethyl-phenyl)-pyrimidine-4-carboxylic acid methyl ester]: the inhibition at 10 µM was determined as 100%.
Regarding `O=C(Nc1ccc(C(F)(F)F)nc1)c1cc(-c2cccc(Cl)c2)ncn1` [6-(3-Chloro-phenyl)-pyrimidine-4-carboxylic acid (6-trifluoromethyl-pyridin-3-yl)-amide], the inhibition at 10 µM turned out to be 89.1%.
On the same count and under the same terms, in the case of `O=C(Nc1cnccn1)c1cc(-c2cccc(Cl)c2)ncn1` [6-(3-Chloro-phenyl)-pyrimidine-4-carboxylic acid pyrazin-2-ylamide] it was 100%; in that of `COc1ccccc1NC(=O)c1cc(-c2cccc(Cl)c2)ncn1` [6-(3-Chloro-phenyl)-pyrimidine-4-carboxylic acid (2-methoxy-phenyl)-amide], 100%; in that of `COC(=O)c1cc(-c2cccc(Cl)c2)ncn1` [6-(3-Chloro-phenyl)-pyrimidine-4-carboxylic acid methyl ester], 106%.
On the same count and under the same terms, in the case of `COC(=O)c1cc(-c2cccc(C(F)(F)F)c2)ncn1` [6-(3-Trifluoromethyl-phenyl)-pyrimidine-4-carboxylic acid methyl ester] it was 94.5%; in that of `O=C(c1cc(-c2cccc(Cl)c2)ncn1)N1CCc2ccccc21` [[6-(3-Chloro-phenyl)-pyrimidin-4-yl]-(2,3-dihydro-indol-1-yl)-methanone], 100%.
Same read-out and setting: in the case of `Cc1nc(C(=O)O)cc(-c2cccc(Cl)c2)n1` [6-(3-Chloro-phenyl)-2-methyl-pyrimidine-4-carboxylic acid] it was 100%.
For the compound `O=C(c1cc(-c2cccc(Cl)c2)ncn1)N1CCc2cc(F)ccc21` [[6-(3-Chloro-phenyl)-pyrimidin-4-yl]-(5-fluoro-2,3-dihydro-indol-1-yl)-methanone], the inhibition at 10 µM stood at 100%.
On the same count and under the same terms, for `O=C(Nc1nccs1)c1cc(-c2cccc(Cl)c2)ncn1` [6-(3-Chloro-phenyl)-pyrimidine-4-carboxylic acid thiazol-2-ylamide] the value was 100%; for `Cc1ccc(NC(=O)c2cc(-c3cccc(Cl)c3)ccn2)cc1` [4-(3-Chloro-phenyl)-pyridine-2-carboxylic acid p-tolylamide], 85.6%.
For the compound `Cc1ccc(NC(=O)c2cc(-c3ccc(Cl)c(Cl)c3)ncn2)cc1` [6-(3,4-Dichloro-phenyl)-pyrimidine-4-carboxylic acid p-tolylamide], the inhibition at 10 µM stood at 100%.
Same read-out and setting: for `COC(=O)c1cc(-c2ccccc2)ncn1` [6-Phenyl-pyrimidine-4-carboxylic acid methyl ester] the value was 100%; for `CC1CCN(C(=O)c2cc(-c3cccc(Cl)c3)ncn2)CC1` [[6-(3-Chloro-phenyl)-pyrimidin-4-yl]-(4-methyl-piperidin-1-yl)-methanone], 88.2%.
In the case of `Cc1nnc(NC(=O)c2cc(-c3ccc(Cl)c(Cl)c3)ncn2)o1` [6-(3,4-Dichloro-phenyl)-pyrimidine-4-carboxylic acid (5-methyl-[1,3,4]oxadiazol-2-yl)-amide], the inhibition at 10 µM turned out to be 100%.
As to `COc1ccc(S(=O)(=O)Nc2cc(-c3ccc(Cl)c(Cl)c3)ncn2)cc1OC` [N-[6-(3,4-Dichloro-phenyl)-pyrimidin-4-yl]-3,4-dimethoxy-benzenesulfonamide], the inhibition at 10 µM is 85%.
Take `Cn1ccc(NC(=O)c2cc(-c3cccc(Cl)c3)ncn2)n1` [6-(3-Chloro-phenyl)-pyrimidine-4-carboxylic acid (1-methyl-1H-pyrazol-3-yl)-amide]: the inhibition at 10 µM amounted to 100%.
With `O=C(c1cc(-c2ccc(Cl)c(Cl)c2)ncn1)N1CCc2cc(F)ccc21` [[6-(3,4-Dichloro-phenyl)-pyrimidin-4-yl]-(5-fluoro-2,3-dihydro-indol-1-yl)-methanone], the inhibition at 10 µM worked out at 100%.
The same measure, in the same setting: for `COc1ccc(NC(=O)c2cc(-c3cccc(Cl)c3)ncn2)cc1` [6-(3-Chloro-phenyl)-pyrimidine-4-carboxylic acid (4-methoxy-phenyl)-amide] the value was 100%; for `NC(=O)[C@@H]1CCCN1C(=O)c1cc(-c2cccc(Cl)c2)ncn1` [(S)-1-[6-(3-Chloro-phenyl)-pyrimidine-4-carbonyl]-pyrrolidine-2-carboxylic acid amide], 91.1%; for `O=C(O)c1ccnc(-c2cccc(Cl)c2)c1` [2-(3-Chloro-phenyl)-isonicotinic acid hydrochloride salt], 53.5%.
In the case of `O=C(Nc1ccncc1)c1cc(-c2cccc(Cl)c2)ncn1` [6-(3-Chloro-phenyl)-pyrimidine-4-carboxylic acid pyridin-4-ylamide], the inhibition at 10 µM was 100%.
For `Cc1cc(NC(=O)c2cc(-c3cccc(Cl)c3)ncn2)on1` [6-(3-Chloro-phenyl)-pyrimidine-4-carboxylic acid (3-methyl-isoxazol-5-yl)-amide], the inhibition at 10 µM came out at 100%.
As to `CS(=O)(=O)Nc1cc(-c2ccc(Cl)c(Cl)c2)ncn1` [N-[6-(3,4-Dichloro-phenyl)-pyrimidin-4-yl]-methanesulfonamide], the inhibition at 10 µM was found to be 51.2%.
For the compound `O=C(Nc1ccon1)c1cc(-c2ccc(Cl)c(Cl)c2)ncn1` [6-(3,4-Dichloro-phenyl)-pyrimidine-4-carboxylic acid isoxazol-3-ylamide], the inhibition at 10 µM stood at 100%.
Same read-out and setting: in the case of `CN(C)C(=O)c1cc(-c2cccc(Cl)c2)ncn1` [6-(3-Chloro-phenyl)-pyrimidine-4-carboxylic acid dimethylamide] it was 100%; in that of `O=C(Nc1ccccc1)c1cc(-c2cccc(Cl)c2)ccn1` [4-(3-Chloro-phenyl)-pyridine-2-carboxylic acid phenylamide], 68.4%; in that of `Cc1ccc(NC(=O)c2cc(-c3ccc(Cl)c(Cl)c3)ncn2)c(C)n1` [6-(3,4-Dichloro-phenyl)-pyrimidine-4-carboxylic acid (2,6-dimethyl-pyridin-3-yl)-amide], 96.8%.
Still for that read-out and setting: in the case of `O=C(Nc1cccnc1)c1cc(-c2cccc(Cl)c2)ccn1` [4-(3-Chloro-phenyl)-pyridine-2-carboxylic acid pyridin-3-ylamide] it was 52.3%; in that of `COC(=O)c1cc(-c2ccc(F)cc2F)ncn1` [6-(2,4-Difluoro-phenyl)-pyrimidine-4-carboxylic acid methyl ester], 100%.
The same measure, in the same setting: in the case of `COc1cncc(NC(=O)c2cc(-c3cccc(Cl)c3)ccn2)c1` [4-(3-Chloro-phenyl)-pyridine-2-carboxylic acid (5-methoxy-pyridin-3-yl)-amide] it was 53.8%; in that of `O=C(Nc1ccncc1)c1cc(-c2ccc(Cl)c(Cl)c2)ncn1` [6-(3,4-Dichloro-phenyl)-pyrimidine-4-carboxylic acid pyridin-4-ylamide], 90.1%.
Consider `O=C(Nc1ccccc1)c1cc(-c2cccc(Cl)c2)ncn1` [6-(3-Chloro-phenyl)-pyrimidine-4-carboxylic acid phenylamide], for which the inhibition at 10 µM was determined as 100%.
As to `C[C@@H](NC(=O)c1cc(-c2cccc(Cl)c2)ncn1)c1ccccc1` [6-(3-Chloro-phenyl)-pyrimidine-4-carboxylic acid ((R)-1-phenyl-ethyl)-amide], the inhibition at 10 µM was 99.2%.
For `O=C(Nc1cncnc1)c1cc(-c2cccc(Cl)c2)ncn1` [6-(3-Chloro-phenyl)-pyrimidine-4-carboxylic acid pyrimidin-5-ylamide], the inhibition at 10 µM worked out at 100%.
In the case of `COC(=O)c1cc(-c2cccc(Cl)c2)ccn1` [4-(3-Chloro-phenyl)-pyridine-2-carboxylic acid methyl ester], the inhibition at 10 µM turned out to be 100%.
On the same count and under the same terms, for `O=C(Nc1ncco1)c1cc(-c2cccc(Cl)c2)ncn1` [6-(3-Chloro-phenyl)-pyrimidine-4-carboxylic acid oxazol-2-ylamide] the value was 100%; for `COC(=O)c1ncnc(-c2ccc(Cl)c(Cl)c2)c1F` [6-(3,4-Dichloro-phenyl)-5-fluoro-pyrimidine-4-carboxylic acid methyl ester], 100%; for `O=C(c1cc(-c2cccc(Cl)c2)ccn1)N1CCc2ccccc21` [[4-(3-Chloro-phenyl)-pyridin-2-yl]-(2,3-dihydro-indol-1-yl)-methanone], 100%.
Still for that read-out and setting: for `CC(C)NC(=O)c1cc(-c2cccc(Cl)c2)ncn1` [6-(3-Chloro-phenyl)-pyrimidine-4-carboxylic acid isopropylamide] the value was 100%.
Consider `COC(=O)c1cc(-c2cc(Cl)ccc2F)ncn1` [6-(5-Chloro-2-fluoro-phenyl)-pyrimidine-4-carboxylic acid methyl ester], for which the inhibition at 10 µM amounted to 100%.
Consider `COc1cncc(NC(=O)c2cc(-c3cccc(Cl)c3)ncn2)c1` [6-(3-Chloro-phenyl)-pyrimidine-4-carboxylic acid (5-methoxy-pyridin-3-yl)-amide], for which the inhibition at 10 µM came to 100%.
As for `O=C(NCc1cccnc1)c1cc(-c2cccc(Cl)c2)ncn1` [6-(3-Chloro-phenyl)-pyrimidine-4-carboxylic acid (pyridin-3-ylmethyl)-amide], the inhibition at 10 µM was determined as 96.7%.

For the origin of these results see patent US9145373B2, “Certain kynurenine-3-monooxygenase inhibitors, pharmaceutical compositions, and methods of use thereof” (CHDI FOUNDATION, INC., priority 2008, dated 2015).
